Laboratory results from patent publication US20160287589A1, “SUBSTITUTED-IMIDAZOPYRIDAZINES” (BAYER PHARMA AKTIENGESELLSCHAFT, priority 2013, published 2016).

Assays:
[1] = molecular target: T1, MKNK1 (Homo sapiens, UniProt Q9BUB5, T385D); assay: MKNK1 kinase high ATP assay (TR-FRET-based); assay type: biochemical; details: Table 2b; 2 mM ATP, 15 min preincubation
T1 construct: GST (N); purchased Carna Biosciences 02-145; host or cells: insect cells (baculovirus expression system)
In short: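 TR-FRET read-out (anti-phospho-S6 Ser236 antibody, Eu/XL665) of biotin-peptide phosphorylation (0.06 μM) at high ATP (2 mM final). Enzyme was GST-MKNK1 full length, T344D, pre-bound to compound for 15 min before a 30 min reaction at 22 °C, pH 7.5. Inhibition scaled between no-inhibitor (0%) and no-enzyme (100%) wells.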

[2] = molecular target: T1, MKNK1; assay: MKNK1 kinase assay (MKNK1 TR-FRET assay); assay type: biochemical; details: Table 1b; 10 μM ATP, 15 min preincubation

T1 sequence (Q9BUB5 1-424 isoform Q9BUB5-2 T344D): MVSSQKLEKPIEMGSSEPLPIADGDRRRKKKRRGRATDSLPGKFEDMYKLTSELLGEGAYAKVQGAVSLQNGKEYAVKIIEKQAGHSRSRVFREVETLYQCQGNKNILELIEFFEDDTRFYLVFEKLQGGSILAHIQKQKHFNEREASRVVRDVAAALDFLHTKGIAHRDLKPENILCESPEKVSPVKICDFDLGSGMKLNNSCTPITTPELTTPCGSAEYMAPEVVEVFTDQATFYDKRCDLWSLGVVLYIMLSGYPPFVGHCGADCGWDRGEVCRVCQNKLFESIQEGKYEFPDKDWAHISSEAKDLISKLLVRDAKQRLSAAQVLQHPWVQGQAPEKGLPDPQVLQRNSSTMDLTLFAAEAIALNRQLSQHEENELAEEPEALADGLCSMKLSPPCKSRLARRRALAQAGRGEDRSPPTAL

Compound	IC50 [1]	IC50 [2]
COC[C@H]1CCCN1c1cccc2oc(-c3cnc4ccc(O[C@H]5C[C@H](N)C5)nn34)cc12 [II-11, trans-3-[(3-{4-[(2R)-2-(Methoxymethyl)pyrrolidin-1-yl]-1-benzofuran-2-yl}imidazo[1,2-b]pyridazin-6-yl)oxy]cyclobutanamine]	3.5 nM	2.4 nM
CS(=O)(=O)CCCOc1ccc2ncc(-c3cc4c(N5CCN(c6ccccc6)CC5)cccc4o3)n2n1 [II-12, 6-[3-(Methylsulfonyl)propoxy]-3-[4-(4-phenylpiperazin-1-yl)-1-benzofuran-2-yl]-imidazo[1,2-b]pyridazine]	67 nM	24 nM
c1cc(N2CCOCC2)c2cc(-c3cnc4ccc(O[C@@H]5CCNC5)nn34)oc2c1 [II-13, 3-[4-(Morpholin-4-yl)-1-benzofuran-2-yl]-6-[(3R)-pyrrolidin-3-yloxy]imidazo[1,2-b]pyridazine]	58 nM	39 nM
O=C1CC[C@H](COc2ccc3ncc(-c4cc5c(N6CCN(c7ccccc7)CC6)cccc5o4)n3n2)N1 [II-14, (5R)-5-[({3-[4-(4-Phenylpiperazin-1-yl)-1-benzofuran-2-yl]imidazo[1,2-b]-pyridazin-6-yl}oxy)methyl]pyrrolidin-2-one]	27 nM	7 nM
C[C@H](N)COc1ccc2ncc(-c3cc4c(N5CCN(c6ccccc6)CC5)cccc4o3)n2n1 [II-15, (2S)-1-({3-[4-(4-Phenylpiperazin-1-yl)-1-benzofuran-2-yl]imidazo[1,2-b]-pyridazin-6-yl}oxy)propan-2-amine]	137 nM	59 nM
N[C@H]1C[C@H](Oc2ccc3ncc(-c4cc5c(N6CCN(c7ccccc7)CC6)cccc5o4)n3n2)C1 [II-16, trans-3-({3-[4-(4-Phenylpiperazin-1-yl)-1-benzofuran-2-yl]imidazo[1,2-b]-pyridazin-6-yl}oxy)cyclobutanamine]	15 nM	13 nM
CCN(CCOC)c1cccc2oc(-c3cnc4ccc(OC[C@H]5CCC(=O)N5)nn34)cc12 [II-17, (5R)-5-{[(3-{4-[Ethyl(2-methoxyethyl)amino]-1-benzofuran-2-yl}imidazo[1,2-b]-pyridazin-6-yl)oxy]methyl}pyrrolidin-2-one]	0.5 nM	0.6 nM
CN1CCN(c2cccc3oc(-c4cnc5ccc(OC[C@H]6CCC(=O)N6)nn45)cc23)CC1 [II-18, (5R)-5-[({3-[4-(4-Methylpiperazin-1-yl)-1-benzofuran-2-yl]imidazo[1,2-b]-pyridazin-6-yl}oxy)methyl]pyrrolidin-2-one]	0.4 nM	0.4 nM
O=C1CC[C@H](COc2ccc3ncc(-c4cc5c(N6CCNCC6)cccc5o4)n3n2)N1 [II-19, (5R)-5-[({3-[4-(Piperazin-1-yl)-1-benzofuran-2-yl]imidazo[1,2-b]pyridazin-6-yl}-oxy)methyl]pyrrolidin-2-one]	0.4 nM	0.4 nM
CS(=O)(=O)CCCOc1ccc2ncc(-c3cc4c(N5CCNCC5)cccc4o3)n2n1 [II-20, 6-[3-(Methylsulfonyl)propoxy]-3-[4-(piperazin-1-yl)-1-benzofuran-2-yl]imidazo-[1,2-b]pyridazine]	0.8 nM	0.5 nM
COc1ccc2ncc(-c3cc4c(N5CCNCC5)cccc4o3)n2n1 [II-21, 6-Methoxy-3-[4-(piperazin-1-yl)-1-benzofuran-2-yl]imidazo[1,2-b]pyridazine]	0.3 nM	0.3 nM
COc1ccc2ncc(-c3cc4c(N5CCN(c6ccccc6)CC5)cccc4o3)n2n1 [II-22, 6-Methoxy-3-[4-(4-phenylpiperazin-1-yl)-1-benzofuran-2-yl]imidazo[1,2-b]-pyridazine]	422 nM	371 nM
CCN(CCOC)c1cccc2oc(-c3cnc4ccc(OCCCS(C)(=O)=O)nn34)cc12 [II-23, N-Ethyl-N-(2-methoxyethyl)-2-{6-[3-(methylsulfonyl)propoxy]imidazo[1,2-b]-pyridazin-3-yl}-1-benzofuran-4-amine]	1.9 nM	2 nM
CCN(CCOC)c1cccc2oc(-c3cnc4ccc(OC[C@H](C)N)nn34)cc12 [II-24, 2-(6-{[(2S)-2-Aminopropyl]oxy}imidazo[1,2-b]pyridazin-3-yl)-N-ethyl-N-(2-methoxyethyl)-1-benzofuran-4-amine]	3.2 nM	3.3 nM
COC[C@H]1CCCN1c1cccc2oc(-c3cnc4ccc(OC[C@@H](C)N)nn34)cc12 [II-26, (2R)-1-[(3-{4-[(2R)-2-(Methoxymethyl)pyrrolidin-1-yl]-1-benzofuran-2-yl}imidazo[1,2-b]pyridazin-6-yl)oxy]propan-2-amine]	0.8 nM	0.8 nM
C[C@H]1CN(c2cccc3oc(-c4cnc5ccc(OC[C@H]6CCC(=O)N6)nn45)cc23)CCO1 [II-27, (5R)-5-{[(3-{4-[(2S)-2-methylmorpholin-4-yl]-1-benzofuran-2-yl}imidazo[1,2-b]pyridazin-6-yl)oxy]methyl}pyrrolidin-2-one]	5.7 nM	2.2 nM

Compound	IC50 [1]	IC50 [2]
COc1ccc2ncc(-c3cc4c(N5CCNC[C@@H]5C)cccc4o3)n2n1 [II-28, 6-methoxy-3-{4-[(2S)-2-methylpiperazin-1-yl]-1-benzofuran-2-yl}imidazo[1,2-b]pyridazine]	0.7 nM	5.1 nM
C[C@H]1CNCCN1c1cccc2oc(-c3cnc4ccc(OCC(F)(F)F)nn34)cc12 [II-29, 3-{4-[(2S)-2-methylpiperazin-1-yl]-1-benzofuran-2-yl}-6-(2,2,2-trifluoroethoxy)im-idazo[1,2-b]pyridazine]	2.7 nM	5.4 nM
C[C@H]1CNCCN1c1cccc2oc(-c3cnc4ccc(OC[C@H]5CCC(=O)N5)nn34)cc12 [II-30, (5R)-5-{[(3-{4-[(2S)-2-methylpiperazin-1-yl]-1-benzofuran-2-yl}imidazo[1,2-b]pyridazin-6-yl)oxy]methyl}pyrrolidin-2-one]	0.6 nM	2.3 nM
C[C@H](N)COc1ccc2ncc(-c3cc4c(N5CCOC[C@@H]5C)cccc4o3)n2n1 [II-31, (2S)-1-[(3-{4-[(3S)-3-methylmorpholin-4-yl]-1-benzofuran-2-yl}imidazo[1,2-b]pyridazin-6-yl)oxy]propan-2-amine]	35.5 nM	24.2 nM
C[C@H]1COCCN1c1cccc2oc(-c3cnc4ccc(OC[C@H]5CCC(=O)N5)nn34)cc12 [II-32, (5R)-5-{[(3-{4-[(3S)-3-methylmorpholin-4-yl]-1-benzofuran-2-yl}imidazo[1,2-b]pyridazin-6-yl)oxy]methyl}pyrrolidin-2-one]	8.1 nM	4.4 nM
C[C@H]1COCCN1c1cccc2oc(-c3cnc4ccc(OC[C@@H]5CCC(=O)N5)nn34)cc12 [II-33, (5S)-5-{[(3-{4-[(3S)-3-methylmorpholin-4-yl]-1-benzofuran-2-yl}imidazo[1,2-b]pyridazin-6-yl)oxy]methyl}pyrrolidin-2-one]	24.4 nM	16.3 nM
C[C@H]1COCCN1c1cccc2oc(-c3cnc4ccc(O[C@H]5C[C@H](N)C5)nn34)cc12 [II-34, trans-3-[(3-{4-[(3S)-3-methylmorpholin-4-yl]-1-benzofuran-2-yl}imidazo[1,2-b]pyridazin-6-yl)oxy]cyclobutanamine]	43.2 nM	26.7 nM
C[C@@H](N)COc1ccc2ncc(-c3cc4c(N5CCOC(C)(C)C5)cccc4o3)n2n1 [II-35, (2R)-1-({3-[4-(2,2-dimethylmorpholin-4-yl)-1-benzofuran-2-yl]imidazo[1,2-b]pyridazin-6-yl}oxy)propan-2-amine]	49.6 nM	16.7 nM
CC1(C)CN(c2cccc3oc(-c4cnc5ccc(OC[C@@H]6CCC(=O)N6)nn45)cc23)CCN1 [II-36, (5S)-5-[({3-[4-(3,3-dimethylpiperazin-1-yl)-1-benzofuran-2-yl]imidazo[1,2-b]pyridazin-6-yl}oxy)methyl]pyrrolidin-2-one]	1 nM	2.3 nM
C[C@@H]1COCCN1c1cccc2oc(-c3cnc4ccc(OC[C@@H](C)N)nn34)cc12 [II-37, (2R)-1-[(3-{4-[(3R)-3-methylmorpholin-4-yl]-1-benzofuran-2-yl}imidazo[1,2-b]pyridazin-6-yl)oxy]propan-2-amine]	69.1 nM	43.9 nM
C[C@H]1CNCCN1c1cccc2oc(-c3cnc4ccc(OC[C@@H]5CCC(=O)N5)nn34)cc12 [II-38, (5S)-5-{[(3-{4-[(2S)-2-methylpiperazin-1-yl]-1-benzofuran-2-yl}imidazo[1,2-b]pyridazin-6-yl)oxy]methyl}pyrrolidin-2-one]	1.4 nM	4.6 nM
COc1ccc2ncc(-c3cc4c(N5CCN[C@H](C)C5)cccc4o3)n2n1 [II-39, 6-methoxy-3-{4-[(3R)-3-methylpiperazin-1-yl]-1-benzofuran-2-yl}imidazo[1,2-b]pyridazine]	1.1 nM	1.6 nM
C[C@H]1CN(c2cccc3oc(-c4cnc5ccc(O[C@H]6C[C@H](N)C6)nn45)cc23)CCO1 [II-43, trans-3-[(3-{4-[(2S)-2-methylmorpholin-4-yl]-1-benzofuran-2-yl}imidazo[1,2-b]pyridazin-6-yl)oxy]cyclobutanamine]	37.5 nM	21.7 nM
COc1ccc2ncc(-c3cc4c(N5CCNC[C@H]5C)cccc4o3)n2n1 [II-44, 6-methoxy-3-{4-[(2R)-2-methylpiperazin-1-yl]-1-benzofuran-2-yl}imidazo[1,2-b]pyridazine]	3.8 nM	2.9 nM
C[C@@H]1CNCCN1c1cccc2oc(-c3cnc4ccc(OCCCS(C)(=O)=O)nn34)cc12 [II-45, 3-{4-[(2R)-2-methylpiperazin-1-yl]-1-benzofuran-2-yl}-6-[3-(methylsulfonyl)pro-poxy]imidazo[1,2-b]pyri-dazine]	5.9 nM	5.7 nM
